Data set [1] deals with Taxol-resistant A2780T cells. Briefly: MTT cytotoxicity assay on Taxol-resistant A2780 cells. Format: cell-based, human. The procedure: (§1) A2780, Taxol-resistant A2780, HCT-8, Taxol-resistant HCT-8 and Taxol-resistant A549 cell lines were cultured in RPMI Medium 1640 medium containing 10% FBS and 1% penicillin/streptomycin. HepG2 and MCF-7 cell lines were cultured in Minimum Essential medium containing 10% FBS and 1% penicillin/streptomycin. All cell lines above were cultured at humidified atmosphere containing 5% CO2 at 37° C.
(§2) In the cytotoxicity assay, exponentially growing cells of each cancer cell line were plated in 96-well microplate at a density of 5000 cells per well in 100 μL of culture medium and allowed to adhere for 24 h before treatment. Serial concentrations of RNA molecules obtained in Example 1 and 2 in a mixture containing a gene delivery carrier, i.e. Lipofectamine™ RNAiMAX Transfection Reagent (Thermo Fisher Scientific, U.S.A.) were then added to the cells. After treated for 48 h, MTT solution (50 μL per well, 1 mg/mL solution) was added to each well and incubated for 4 h at 37° C. Subsequently, 200 μL dimethyl sulfoxide (DMSO) were added and the optical densities of the resulting solutions were calorimetrically determined at 570 nm using a SpectraMax 190 microplate reader (Molecular Devices, Sunnyvale, Calif., U.S.A). Dose-response curves were obtained, and the IC50 values were calculated by GraphPad Prism 5 (GraphPad, La Jolla, Calif., USA). […] IC50 results were expressed as means±standard deviation.

The test system of data set [2] is A2780 cells tumor xenografts. Briefly: In vivo antitumor effect, A2780 xenograft in nude mice. Conditions: 2.4 mg/kg with 1% atelocollagen, tumor-adjacent injection once a week; for inhibition of tumor growth (ratio of tumor volume): 28 days (FIG. 7A); for body weight (ratio of weight changes): 28 days (FIG. 7B). Also on record: species or system BALB/c nude mice. As for the experimental part:
Animal model having xenograft cancer was set. Female BALB/c nude mice (6-8-week old) were purchased from Shanghai SLAC Laboratory Animal Co., Ltd. and maintained at 25° C. with free access to food and water in a special pathogen-free laboratory of the animal environment facilities. The animal experiments were performed in compliance with institutional animal care guidelines and according to committee-approved protocol. To generate tumor xenografts, A2780 cells (4.0×10^6) were injected subcutaneously in 100 μL of 1640 medium through a 27-gauge needle into the armpit of 8-week-old BALB/c nude mice. After 4-5 weeks after tumors had reached 60-70 mm^3, the tumor-bearing nude mice were treated with synthesized tRF with atelocollagen (Koken Co., Ltd., Tokyo, Japan). The concentration of atelocollagen was 1%, and tumor-adjacent injection was performed by one dose of HC11 or HC30 (RNA molecule of SEQ ID NO: 1 or SEQ ID NO: 9) (GenePharma Co., Ltd., Shanghai, China) at concentration of 2.4 mg/kg with atelocollagen once a week. A control group was set up in which vehicle was administered to the mice. A Taxol group for administering 1 mg/kg Taxol to the mice was also set as a comparison. The entire treatment lasted for 28 days.
Tumor diameters were measured at maximum length and maximum width with digital calipers. And the tumor volume was calculated by the formula: volume=(width)^2×length/2. The data were statistically analyzed using GraphPad Prism 5 (GraphPad, La Jolla, Calif., USA). […] In other words, the RNA molecules of the present invention are effective in treating cancer cells both in vivo and in vitro.

Data set [3] concerns A2780 cells. Briefly: MTT cytotoxicity assay on A2780 cells. The conditions noted are these: for IC50 / inhibition of growth and proliferation (cell viability): 48 h; for IC50: MTT; for inhibition of growth and proliferation (cell viability): 25 nM tRNA, RNAiMAX transfection, A2780 ovarian cancer cells (FIG. 3). It counts as cell-based, human. The procedure: as §1
(§3) In the cytotoxicity assay, exponentially growing cells of each cancer cell line were plated in 96-well microplate at a density of 5000 cells per well in 100 μL of culture medium and allowed to adhere for 24 h before treatment. Serial concentrations of RNA molecules obtained in Example 1 and 2 in a mixture containing a gene delivery carrier, i.e. Lipofectamine™ RNAiMAX Transfection Reagent (Thermo Fisher Scientific, U.S.A.) were then added to the cells. After treated for 48 h, MTT solution (50 μL per well, 1 mg/mL solution) was added to each well and incubated for 4 h at 37° C. Subsequently, 200 μL dimethyl sulfoxide (DMSO) were added and the optical densities of the resulting solutions were calorimetrically determined at 570 nm using a SpectraMax 190 microplate reader (Molecular Devices, Sunnyvale, Calif., U.S.A). Dose-response curves were obtained, and the IC50 values were calculated by GraphPad Prism 5 (GraphPad, La Jolla, Calif., USA). Each experiment was carried out for three times. IC50 results were expressed as means±standard deviation.

Data set [4] relates to Taxol-resistant A549T cells. Briefly: MTT cytotoxicity assay on Taxol-resistant A549 cells. It counts as cell-based, human. The procedure: as §1, §2
The subject of data set [5] is Taxol-resistant HCT-8 cells (HCT-8T). Briefly: MTT cytotoxicity assay on Taxol-resistant HCT-8 cells. Conditions: 50 nM, 22 bp (FIG. 5F). Format: cell-based. The procedure: as §1, §3
The test system of data set [6] is HCT-8 cells. Briefly: MTT cytotoxicity assay on HCT-8 cells. Format: cell-based. Conditions: for dose dependence of growth and proliferation inhibition: 6.25-100 nM (FIG. 6G, 6H); for IC50: 48 h, MTT. The procedure:
as §1, §3

The test system of data set [7] is MCF-7 cells. Briefly: MTT cytotoxicity assay on MCF-7 cells. Format: cell-based, human. The conditions noted are these: 25 nM tRNA, 48 h, RNAiMAX transfection, MCF-7 breast cancer cells (FIG. 3). As for the experimental part:
as §1, §3

For data set [8], the system named is HepG2 cells. Briefly: MTT cytotoxicity assay on HepG2 cells. Format: cell-based, human. Conditions: 25 nM tRNA, 48 h, RNAiMAX transfection, HepG2 liver cancer cells (FIG. 3). The procedure: as §1, §3

As to “HC11: double-stranded RNA, sense SEQ ID NO: 1, antisense SEQ ID NO: 101, 22 bp, 5′-t of tRNA^His(GUG) (sense GCGGACGUAGCCAAGUGGUCCA; antisense UGGACCACUUGGCUACGUCCGC; RNA, backbone and methylation of C not given here; synthetic double-stranded RNA)”, the “dose dependence of growth and proliferation inhibition” value in data set [1] (A2780T cells, 6.25-200 nM (FIG. 6C)) is “dose-dependent effect”; in data set [3] (A2780 cells, 6.25-100 nM (FIG. 6A)), “dose-dependent effect”; in data set [4] (A549T cells, 6.25-200 nM (FIG. 6E)), “dose-dependent effect”. Besides, the IC50 in data set [1] (Taxol-resistant A2780T cells, 48 h, MTT) is 32.3 nM; in data set [3] (A2780 cells) it was 31 nM; in data set [4] (Taxol-resistant A549T cells, 48 h, MTT), 87.3 nM. Also, the “inhibition of tumor growth (ratio of tumor volume)” value in data set [2] was “effective in inhibiting the growth of the tumor”. For the same molecule, the “body weight (ratio of weight changes)” value in data set [2] was “maintaining a relative constant body weight”.
Regarding “HC18: double-stranded RNA, sense SEQ ID NO: 13, antisense SEQ ID NO: 113, 22 bp, 5′-t of tRNA^Leu(CAA) (sense GCCUUGAUGGUGAAAUGGUAGA; antisense UCUACCAUUUCACCAUCAAGGC; RNA, backbone and methylation of C not given here; synthetic double-stranded RNA)”, in data set [5], the “cytotoxic effect (cell viability)” value is reported as “useful in treating cancer which is resistant against Taxol”.
Take “HC30: double-stranded RNA, sense SEQ ID NO: 9, antisense SEQ ID NO: 109, 22 bp, 5′-t of tRNA^Trp(CCA) (sense GCGCUCUUAGUUCAGUGCGGUA; antisense UACCGCACUGAACUAAGAGCGC; RNA, backbone and methylation of C not given here; synthetic double-stranded RNA)”: in data set [2], the “inhibition of tumor growth (ratio of tumor volume)” value is “effective in inhibiting the growth of the tumor” and the “body weight (ratio of weight changes)” value is “maintaining a relative constant body weight”.
On to “HC34: double-stranded RNA, sense SEQ ID NO: 25, antisense SEQ ID NO: 125, 22 bp, 5′-t of tRNA^Cys(GCA) (sense GGCGACAUAGCCAAGUGGUAAG; antisense CUUACCACUUGGCUAUGUCGCC; RNA, backbone and methylation of C not given here; synthetic double-stranded RNA)”, for which the “cytotoxic effect (cell viability)” value in data set [5] is reported as “useful in treating cancer which is resistant against Taxol”.
As for “HC36: double-stranded RNA, sense SEQ ID NO: 29, antisense SEQ ID NO: 129, 22 bp, 5′-t of tRNA^Asn(GUU) (sense CCUCAGUAGCUCAGUGGUAGAG; antisense CUCUACCACUGAGCUACUGAGG; RNA, backbone and methylation of C not given here; synthetic double-stranded RNA)”, the “cytotoxic effect (cell viability)” value in data set [5] is “useful in treating cancer which is resistant against Taxol”. In data set [6], the “dose dependence of growth and proliferation inhibition” value was “dose-dependent effect”; 8.2 nM corresponded to half-maximal inhibition (IC50).
As to “HC37: double-stranded RNA, sense SEQ ID NO: 31, antisense SEQ ID NO: 131, 22 bp, 3′-t of tRNA^Asn(GUU) (sense GGUUCAAAUCCUAUUUGAGGAG; antisense CUCCUCAAAUAGGAUUUGAACC; RNA, backbone and methylation of C not given here; synthetic double-stranded RNA)”, in data set [5], the “cytotoxic effect (cell viability)” value is “useful in treating cancer which is resistant against Taxol”. In data set [6], the “dose dependence of growth and proliferation inhibition” value is listed as “dose-dependent effect”; the IC50 is 9.3 nM.
For the molecule “HC39: double-stranded RNA, sense SEQ ID NO: 35, antisense SEQ ID NO: 135, 22 bp, 3′-t of tRNA^Met(CAU) (sense GGUUCAAAUCCCGUCUCCGCAA; antisense UUGCGGAGACGGGAUUUGAACC; RNA, backbone and methylation of C not given here; synthetic double-stranded RNA)”, in data set [5], the “cytotoxic effect (cell viability)” value is listed as “useful in treating cancer which is resistant against Taxol”.

B1: tRNA^Trp(CCA): tRNA isolated from Taxus chinensis (Pilger) Rehd. var. mairei, 75 mer (nucleic acid)
chain: GCGCUCUUAGUUCAGUGCGGUAGAACGCAGGUCUCCAAAACCUGAUGCCGUAGGUUCAAAUCCUACAGAGCGCCA
modifications: expressed or natural sequence
notes: tRNA isolated from Taxus chinensis (Pilger) Rehd. var. mairei, 75 mer
B1: the “inhibition of growth and proliferation (cell viability)” value (from here on “inhibition of growth and proliferation”) in data set [7] is “capable of inhibiting the growth and proliferation”; in data set [3], “capable of inhibiting the growth and proliferation”; in data set [8], “capable of inhibiting the growth and proliferation”. Besides, the IC50 in data set [3] (A2780 cells) was around 14.3 nM.

B2: tRNA^Leu(CAA): tRNA isolated from Taxus chinensis (Pilger) Rehd. var. mairei, 84 mer (nucleic acid)
chain: GCCUUGAUGGUGAAAUGGUAGACACGCGAGACUCAAAAUCUCGUGCUAAACAGCGUGGAGGUUCGAAUCCUCUUCAAGGCACCA
modifications: expressed or natural sequence
notes: tRNA isolated from Taxus chinensis (Pilger) Rehd. var. mairei, 84 mer
Regarding B2, the “inhibition of growth and proliferation” value was “capable of inhibiting the growth and proliferation” in data set [7]; “capable of inhibiting the growth and proliferation” in data set [3]; “capable of inhibiting the growth and proliferation” in data set [8].

B3: tRNA^His(GUG): tRNA isolated from Taxus chinensis (Pilger) Rehd. var. mairei, 78 mer (nucleic acid)
chain: GCGGACGUAGCCAAGUGGUCCAAAGGCAGUGGAUUGUGAAUCCACCACGCGCGGGUUCAAUCCCCGUCGUUCGCCCCA
modifications: expressed or natural sequence
notes: tRNA isolated from Taxus chinensis (Pilger) Rehd. var. mairei, 78 mer
Regarding B3, the “inhibition of growth and proliferation” value in data set [7] is “capable of inhibiting the growth and proliferation”; in data set [3], “capable of inhibiting the growth and proliferation”; in data set [8], “capable of inhibiting the growth and proliferation”.

B4: tRNA^Glu(UUC): tRNA isolated from Taxus chinensis (Pilger) Rehd. var. mairei, 76 mer (nucleic acid)
chain: GCCCCUAUCGUCUAGUGGCCCAGGACAUCUCUCUUUCAAGGAGGCAACGGGGAUUCGAUUUCCCCUAGGGGUACCA
modifications: expressed or natural sequence
notes: tRNA isolated from Taxus chinensis (Pilger) Rehd. var. mairei, 76 mer
Turning to B4, the “inhibition of growth and proliferation” value in data set [7] is “capable of inhibiting the growth and proliferation”; in data set [3], “capable of inhibiting the growth and proliferation”; in data set [8], “capable of inhibiting the growth and proliferation”.

B5: tRNA^Arg(ACG): tRNA isolated from Taxus chinensis (Pilger) Rehd. var. mairei, 77 mer (nucleic acid)
chain: GGGCCUGUAGCUCAGAGGAUUAGAGCACGUGGUUGCGAACCACGGUGUCGGGGGUUCGAAUCCCUCCUCGCCCACCA
modifications: expressed or natural sequence
notes: tRNA isolated from Taxus chinensis (Pilger) Rehd. var. mairei, 77 mer
As for B5, the “inhibition of growth and proliferation” value was “capable of inhibiting the growth and proliferation” in data set [7]; “capable of inhibiting the growth and proliferation” in data set [3]; “capable of inhibiting the growth and proliferation” in data set [8].
